# Experimental data as given in PubChem BioAssay AID200 (DTP/NCI, 2004).
# Several values for one entry are separate records, joined by “and”; a condition that tells them apart may be missing. Equal values may be shown once. Toxic doses and inconclusive results are not listed. Where a SMILES comes first, the peptide text is derived from it. [ ]: non-standard residue; d: D form. Tyr(3,5-I2) = N[CH](Cc1cc(I)c(O)c(I)c1)C(=O)O
# Tested on: B6C3F1 mice, B16 melanoma ip, median survival T/C
# Assay: NCI In Vivo Anticancer Drug Screen. Data for tumor model B16 Melanoma (intraperitoneal) in B6C3F1 mice
# Conditions: endpoint: median survival time, higher = longer survival
# Method in brief: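 Tumor-bearing mice received test compound; a separate group got vehicle only. Survival was then compared, with results reported as treated over control.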
# [1] = dose: 25.0 mg/kg/injection, schedule: Q01DX009 (ip), vehicle: Klucel (hydroxypropylcellulose) (HPC)
# [2] = dose: 50.0 mg/kg/injection, schedule: Q01DX009 (ip), vehicle: Klucel (hydroxypropylcellulose) (HPC)
# [3] = dose: 100.0 mg/kg/injection, schedule: Q01DX009 (ip), vehicle: Klucel (hydroxypropylcellulose) (HPC)
# [4] = dose: 200.0 mg/kg/injection, schedule: Q01DX009 (ip), vehicle: Klucel (hydroxypropylcellulose) (HPC)
# [5] = dose: 400.0 mg/kg/injection, schedule: Q01DX009 (ip), vehicle: Klucel (hydroxypropylcellulose) (HPC)
# [6] = dose: 6.25 mg/kg/injection, schedule: Q01DX009 (ip), vehicle: saline with Tween-80
# [7] = dose: 12.5 mg/kg/injection, schedule: Q01DX009 (ip), vehicle: saline with Tween-80
# [8] = dose: 25.0 mg/kg/injection, schedule: Q01DX009 (ip), vehicle: saline with Tween-80
# [9] = dose: 50.0 mg/kg/injection, schedule: Q01DX009 (ip), vehicle: saline with Tween-80
# [10] = dose: 100.0 mg/kg/injection, schedule: Q01DX009 (ip), vehicle: saline with Tween-80
# [11] = dose: 6.25 mg/kg/injection, schedule: Q01DX009 (ip), vehicle: saline
# [12] = dose: 12.5 mg/kg/injection, schedule: Q01DX009 (ip), vehicle: saline
# [13] = dose: 25.0 mg/kg/injection, schedule: Q01DX009 (ip), vehicle: saline
# [14] = dose: 50.0 mg/kg/injection, schedule: Q01DX009 (ip), vehicle: saline
# [15] = dose: 2.0 mg/kg/injection, schedule: Q01DX009 (ip), vehicle: saline
# [16] = dose: 4.0 mg/kg/injection, schedule: Q01DX009 (ip), vehicle: saline
# [17] = dose: 8.0 mg/kg/injection, schedule: Q01DX009 (ip), vehicle: saline
# [18] = dose: 16.0 mg/kg/injection, schedule: Q01DX009 (ip), vehicle: saline
# [19] = dose: 32.0 mg/kg/injection, schedule: Q01DX009 (ip), vehicle: saline
# [20] = dose: 200.0 mg/kg/injection, schedule: Q01DX009 (ip), vehicle: saline with Tween-80
# [21] = dose: 100.0 mg/kg/injection, schedule: Q01DX009 (ip), vehicle: saline
compound,measurement,setting,value
NC(N)=NS(=O)(=O)c1ccc(NCc2c3ccccc3nc3ccccc23)cc1,T/C,[1],159 % of control
same,T/C,[2],184 % of control
same,T/C,[3],213 % of control
same,T/C,[4],238 % of control
same,T/C,[5],238 % of control
same,T/C,"dose: 800.0 mg/kg/injection, schedule: Q01DX009 (ip), vehicle: Klucel (hydroxypropylcellulose) (HPC)",250 % of control
CCCCCCCCCCCCSC1=C(Cl)C(=O)C(OC)=C(OC)C1=O,T/C,"dose: 3.12 mg/kg/injection, schedule: Q01DX009 (ip), vehicle: saline with Tween-80",95 % of control and 102 % of control
same,T/C,[6],95 % of control and 103 % of control
same,T/C,[7],89 % of control and 94 % of control
same,T/C,[8],90 % of control and 100 % of control
same,T/C,[9],88 % of control and 101 % of control
same,T/C,[10],89 % of control
CCCC(NC(=O)C(C)N)C(=O)O (stereo unspecified),T/C,[2],106 % of control
same,T/C,[3],112 % of control
same,T/C,[4],92 % of control
same,T/C,[5],98 % of control
C[CH2][Sn]([CH2]C)([O]S(C)(=O)=O)[O]S(C)(=O)=O,T/C,"dose: 0.78 mg/kg/injection, schedule: Q01DX009 (ip), vehicle: saline",92 % of control
same,T/C,"dose: 0.79 mg/kg/injection, schedule: Q01DX009 (ip), vehicle: saline",102 % of control
same,T/C,"dose: 1.56 mg/kg/injection, schedule: Q01DX009 (ip), vehicle: saline",98 % of control and 103 % of control
same,T/C,"dose: 3.12 mg/kg/injection, schedule: Q01DX009 (ip), vehicle: saline",97 % of control and 103 % of control
same,T/C,[11],108 % of control and 96 % of control
same,T/C,[12],91 % of control and 99 % of control
CCCCCCCCCCCCCCCC(=O)Nc1ccn(C2OC(CO)C(O)C2O)c(=O)n1 (stereo unspecified),T/C,[11],98 % of control
same,T/C,[13],157 % of control
same,T/C,[14],180 % of control
N=c1c(C(=O)OCc2ccccc2)ncc(CCl)n1O,T/C,[8],94 % of control
same,T/C,[9],95 % of control
same,T/C,[10],99 % of control
[Cl][Mn][Cl],T/C,[15],115 % of control and 107 % of control
same,T/C,[16],96 % of control and 103 % of control and 106 % of control
same,T/C,[17],112 % of control and 98 % of control
same,T/C,[18],104 % of control
same,T/C,[19],155 % of control
same,T/C,"dose: 64.0 mg/kg/injection, schedule: Q01DX009 (ip), vehicle: saline",152 % of control and 160 % of control
O=C1c2ccccc2CCC1Br (stereo unspecified),T/C,"dose: 1.5 mg/kg/injection, schedule: Q01DX009 (ip), vehicle: DMSO",87 % of control
same,T/C,"dose: 3.0 mg/kg/injection, schedule: Q01DX009 (ip), vehicle: DMSO",86 % of control and 87 % of control
same,T/C,"dose: 6.0 mg/kg/injection, schedule: Q01DX009 (ip), vehicle: DMSO",91 % of control
same,T/C,"dose: 12.0 mg/kg/injection, schedule: Q01DX009 (ip), vehicle: DMSO",94 % of control
O=C1SC(c2ccccc2)=S=C1c1ccccc1,T/C,[1],92 % of control
same,T/C,[2],97 % of control
same,T/C,[3],98 % of control
same,T/C,[4],93 % of control
CC(C)C(NC(=O)CCNC(=O)OCc1ccccc1)C(=O)O (stereo unspecified),T/C,[3],100 % of control
same,T/C,[4],116 % of control
same,T/C,[5],87 % of control
Nc1ccc2ccc(N)cc2c1,T/C,[8],109 % of control
same,T/C,[9],109 % of control
same,T/C,[10],116 % of control
same,T/C,[20],105 % of control
CC(C)NCC(O)COc1ccc(O)c(O)c1 (stereo unspecified),T/C,[13],100 % of control and 103 % of control
same,T/C,[14],113 % of control and 106 % of control
same,T/C,[21],109 % of control and 116 % of control
C1CN(P2(N3CC3)=NP(N3CC3)(N3CC3)=NP(N3CC3)(N3CC3)=N2)CCO1 (stereo unspecified),T/C,"dose: 1.0 mg/kg/injection, schedule: Q01DX009 (ip), vehicle: saline",87 % of control and 96 % of control
same,T/C,"dose: 1.0 mg/kg/injection, schedule: Q02DX009 (ip), vehicle: saline",88 % of control and 106 % of control
same,T/C,[15],87 % of control and 105 % of control
same,T/C,"dose: 2.0 mg/kg/injection, schedule: Q02DX009 (ip), vehicle: saline",114 % of control and 92 % of control
same,T/C,[16],101 % of control
same,T/C,"dose: 4.0 mg/kg/injection, schedule: Q02DX009 (ip), vehicle: saline",103 % of control
same,T/C,[17],110 % of control
same,T/C,"dose: 8.0 mg/kg/injection, schedule: Q02DX009 (ip), vehicle: saline",109 % of control and 121 % of control
same,T/C,[18],179 % of control
same,T/C,"dose: 16.0 mg/kg/injection, schedule: Q02DX009 (ip), vehicle: saline",169 % of control
same,T/C,[19],182 % of control and 205 % of control
CCOC(=O)C(N)CSC(=O)NC (stereo unspecified),T/C,[12],103 % of control and 106 % of control
same,T/C,[13],108 % of control and 92 % of control
same,T/C,[14],103 % of control and 106 % of control
same,T/C,[21],108 % of control and 93 % of control
same,T/C,"dose: 200.0 mg/kg/injection, schedule: Q01DX009 (ip), vehicle: saline",109 % of control
same,T/C,"dose: 400.0 mg/kg/injection, schedule: Q01DX009 (ip), vehicle: saline",124 % of control
COc1cc(-c2ccc(Nc3ccccc3C(=O)O)c(OC)c2)ccc1Nc1ccccc1C(=O)O,T/C,"dose: 100.0 mg/kg/injection, schedule: Q01DX009 (ip), vehicle: suspension in saline",94 % of control
same,T/C,"dose: 200.0 mg/kg/injection, schedule: Q01DX009 (ip), vehicle: suspension in saline",99 % of control
same,T/C,"dose: 400.0 mg/kg/injection, schedule: Q01DX009 (ip), vehicle: suspension in saline",98 % of control
COc1ccc2c(NCCCCCCNc3c4ccccc4nc4cc(OC)ccc34)c3ccccc3nc2c1,T/C,"dose: 39.0 micrograms/kg/injection, schedule: Q01DX009 (ip), vehicle: lactic acid",108 % of control
same,T/C,"dose: 78.0 micrograms/kg/injection, schedule: Q01DX009 (ip), vehicle: lactic acid",90 % of control
CC[C@@]1(O)C[C@H](OC2CC(N(C)C)C(OC3CC(O)C(OC4CCC(=O)C(C)O4)C(C)O3)C(C)O2)c2c(cc3c(c2O)C(=O)c2c(O)cccc2C3=O)[C@H]1C(=O)OC (stereo partly specified),T/C,"dose: 3.0 mg/kg/injection, schedule: Q01DX009 (ip), vehicle: saline with Tween-80",151 % of control
CC(O)CNC1c2ccccc2CC1O (stereo unspecified),T/C,[13],90 % of control
same,T/C,[14],93 % of control
same,T/C,[21],89 % of control
c1ccc2c(NCCCCCCNc3c4ccccc4nc4ccccc34)c3ccccc3nc2c1,T/C,"dose: 0.62 mg/kg/injection, schedule: Q01DX009 (ip), vehicle: Klucel (hydroxypropylcellulose) (HPC)",116 % of control
same,T/C,"dose: 1.25 mg/kg/injection, schedule: Q01DX009 (ip), vehicle: water",111 % of control and 116 % of control
same,T/C,"dose: 1.58 mg/kg/injection, schedule: Q01DX009 (ip), vehicle: Klucel (hydroxypropylcellulose) (HPC)",154 % of control
same,T/C,"dose: 2.37 mg/kg/injection, schedule: Q01DX009 (ip), vehicle: Klucel (hydroxypropylcellulose) (HPC)",179 % of control
same,T/C,"dose: 2.5 mg/kg/injection, schedule: Q01DX009 (ip), vehicle: Klucel (hydroxypropylcellulose) (HPC)",151 % of control
same,T/C,"dose: 2.5 mg/kg/injection, schedule: Q01DX009 (ip), vehicle: water",112 % of control and 122 % of control
same,T/C,"dose: 5.0 mg/kg/injection, schedule: Q01DX009 (ip), vehicle: Klucel (hydroxypropylcellulose) (HPC)",189 % of control
same,T/C,"dose: 5.0 mg/kg/injection, schedule: Q01DX009 (ip), vehicle: water",123 % of control
same,T/C,"dose: 5.33 mg/kg/injection, schedule: Q01DX009 (ip), vehicle: Klucel (hydroxypropylcellulose) (HPC)",213 % of control
same,T/C,"dose: 8.0 mg/kg/injection, schedule: Q01DX009 (ip), vehicle: Klucel (hydroxypropylcellulose) (HPC)",199 % of control
same,T/C,"dose: 10.0 mg/kg/injection, schedule: Q01DX009 (ip), vehicle: Klucel (hydroxypropylcellulose) (HPC)",200 % of control
same,T/C,"dose: 10.0 mg/kg/injection, schedule: Q01DX009 (ip), vehicle: water",153 % of control
same,T/C,"dose: 12.0 mg/kg/injection, schedule: Q01DX009 (ip), vehicle: Klucel (hydroxypropylcellulose) (HPC)",190 % of control
same,T/C,"dose: 20.0 mg/kg/injection, schedule: Q01DX009 (ip), vehicle: Klucel (hydroxypropylcellulose) (HPC)",206 % of control
same,T/C,"dose: 20.0 mg/kg/injection, schedule: Q01DX009 (ip), vehicle: water",162 % of control
C[C@]12CC[C@H](O)CC1=CC[C@@H]1[C@@H]2CC[C@]2(C)C(=O)CC[C@@H]12,T/C,[8],100 % of control
same,T/C,[9],97 % of control
same,T/C,[10],101 % of control
same,T/C,[20],92 % of control
C[CH2][Ge]([CH2]C)[CH2]C.C[CH2][Ge]([CH2]C)[CH2]C.C[CH2][Ge]([CH2]C)[O][Ge]([CH2]C)[CH2]C,T/C,"dose: 3.13 mg/kg/injection, schedule: Q01DX009 (ip), vehicle: saline with Tween-80",89 % of control
same,T/C,[6],93 % of control
same,T/C,[7],87 % of control
"CC(=O)NC(Cc1ccccc1)C(=O)NC(Cc1cc(I)c(O)c(I)c1)C(=O)O (stereo unspecified) (Ac-Phe-[Tyr(3,5-I2)]-OH; configuration not given here)",T/C,[5],89 % of control
